Test results reported in article PMC4666381 (2015).

Tests used:
[1] = tested on: DNB aptamer (RNA, aptamer) GGUGCCUUAUUCCGGACGCCGGGCCCGAAUGCUGCUACGGCAGUCGAAGACAACAUCGCGCCCUUCGGAGGCACC; assay: fluorescence increase titration; settings: 125 mM KCl, 5 mM MgCl2; 20 mM Hepes pH 7.4, 25°C; probe 100 nM
[2] = tested on: wt-DNB aptamer (RNA, aptamer) GGAGCUCAGCCUUCACUGCCUUAUUCCGGACGCCGGGCCCGAAUGCUGCUACGGCAGUCGAAGACAACAUCGCGCCCUUCGGAGGCACCACGGUCGGAUCCAC; assay: fluorescence increase titration; settings: 125 mM KCl, 5 mM MgCl2; 20 mM Hepes pH 7.4, 25°C; probe 100 nM
[3] = tested on: clone 5 (RNA, aptamer) GGAGCUCAGCCUUCACUGCGGUUGCCCUCCGUGCUUCAUGCUUCCCUGCUUCGGCAGUCGCGGUAAACCGUAGAGAAAGUUGAGGCACCACGGUCGGAUCCAC; assay: fluorescence increase titration; settings: 125 mM KCl, 5 mM MgCl2; 20 mM Hepes pH 7.4, 25°C; probe 1 µM
[4] = tested on: DNB aptamer (RNA, aptamer) GGUGCCUUAUUCCGGACGCCGGGCCCGAAUGCUGCUACGGCAGUCGAAGACAACAUCGCGCCCUUCGGAGGCACC; assay: fluorescence competition; settings: 125 mM KCl, 5 mM MgCl2; 20 mM Hepes pH 7.4; displaces SR-DN (1 μM) from DNB (100 nM); calculated from IC50

KD [1]	KD [2]	KD [3]	KD [4]	SMILES
0.80 ± 0.10 µM	1.44 ± 0.08 µM	20.1 ± 3.9 µM		CCN(CC)c1ccc2c(-c3ccc(S(=O)(=O)NCCOCCOCCNc4ccc([N+](=O)[O-])cc4[N+](=O)[O-])cc3S(=O)(=O)[O-])c3ccc(=[N+](CC)CC)cc-3oc2c1
0.35 ± 0.05 µM		7.77 ± 0.9 µM		CN(C)c1ccc2c(-c3ccc(C(=O)NCCOCCOCCNc4ccc([N+](=O)[O-])cc4[N+](=O)[O-])cc3C(=O)[O-])c3ccc(=[N+](C)C)cc-3oc2c1
4.48 ± 0.60 µM				N=c1ccc2c(-c3ccc(C(=O)NCCOCCOCCNc4ccc([N+](=O)[O-])cc4[N+](=O)[O-])cc3C(=O)O)c3ccc(N)cc3oc-2c1
			0.1 ± 0.014 µM	NCCOCCOCCNc1ccc([N+](=O)[O-])cc1[N+](=O)[O-]
8.55 ± 0.53 µM		27.2 ± 3.2 µM		O=C(NCCOCCOCCNc1ccc([N+](=O)[O-])cc1[N+](=O)[O-])c1ccc(-c2c3ccc(=O)cc-3oc3cc(O)ccc23)c(C(=O)O)c1
18.0 ± 1.8 µM		52.6 ± 17.8 µM		O=[N+]([O-])c1ccc(NCCOCCOCCNS(=O)(=O)c2ccc(C3=c4cc5c6c(c4Oc4c3cc3c7c4CCCN7CCC3)CCC[N+]=6CCC5)c(S(=O)(=O)[O-])c2)c([N+](=O)[O-])c1
